# According to publication PMC9516332 (Frontiers in Oncology, 2022):
# Read-outs that look alike come from different tables or passages of the source.
# Legend:
# AP-1060 (ETV6-NTRK3) = assay: Cell viability assay; conditions: read-out: IC50 in cell proliferation assay
# 134 cancer cell lines = assay: Cell viability assay (ATPlite, 72 hours), IC50 on cancer cell line panel
smiles,measurement,setting,value
CCn1c(=O)c(-c2cc(NC(=O)Nc3ccccc3)c(F)cc2Br)cc2cnc(NC)cc21 [ripretinib],IC50,AP-1060 (ETV6-NTRK3),2830 nM
same,IC50,"134 cancer cell lines; HEC-6, read-out: IC50 in cell proliferation assay",1860 nM
same,IC50,"134 cancer cell lines; Homo sapiens, 769-P, read-out: IC50 in cell proliferation assay",2580 nM
same,IC50,"134 cancer cell lines; Homo sapiens, 786-0, read-out: IC50 in cell proliferation assay",2140 nM
same,IC50,"134 cancer cell lines; Homo sapiens, A 172, read-out: IC50 in cell proliferation assay",4960 nM
same,IC50,"134 cancer cell lines; Homo sapiens, A204, read-out: IC50 in cell proliferation assay",520 nM
same,IC50,"134 cancer cell lines; Homo sapiens, A498, read-out: IC50 in cell proliferation assay",1140 nM
same,IC50,"134 cancer cell lines; Homo sapiens, A549, read-out: IC50 in cell proliferation assay",2680 nM
same,IC50,"134 cancer cell lines; Homo sapiens, A704, read-out: IC50 in cell proliferation assay",2220 nM
same,IC50,"134 cancer cell lines; Homo sapiens, A-375, read-out: IC50 in cell proliferation assay",2920 nM
same,IC50,"134 cancer cell lines; Homo sapiens, A-427, read-out: IC50 in cell proliferation assay",1520 nM
same,IC50,"134 cancer cell lines; Homo sapiens, ACHN, read-out: IC50 in cell proliferation assay",1470 nM
same,IC50,"134 cancer cell lines; Homo sapiens, AN3-CA, read-out: IC50 in cell proliferation assay",1010 nM
same,IC50,"134 cancer cell lines; Homo sapiens, ASPC1, read-out: IC50 in cell proliferation assay",7560 nM
same,IC50,"134 cancer cell lines; Homo sapiens, AU565, read-out: IC50 in cell proliferation assay",3760 nM
same,IC50,"134 cancer cell lines; Homo sapiens, BT-20, read-out: IC50 in cell proliferation assay",7430 nM
same,IC50,"134 cancer cell lines; Homo sapiens, BT-474, read-out: IC50 in cell proliferation assay",2230 nM
same,IC50,"134 cancer cell lines; Homo sapiens, BT-549, read-out: IC50 in cell proliferation assay",4510 nM
same,IC50,"134 cancer cell lines; Homo sapiens, BXPC-3, read-out: IC50 in cell proliferation assay",1510 nM
same,IC50,"134 cancer cell lines; Homo sapiens, C-33-A, read-out: IC50 in cell proliferation assay",4820 nM
same,IC50,"134 cancer cell lines; Homo sapiens, CAL-27, read-out: IC50 in cell proliferation assay",9800 nM
same,IC50,"134 cancer cell lines; Homo sapiens, CCF-STTG1, read-out: IC50 in cell proliferation assay",> 31600 nM
same,IC50,"134 cancer cell lines; Homo sapiens, CCRF-CEM, read-out: IC50 in cell proliferation assay",4980 nM
same,IC50,"134 cancer cell lines; Homo sapiens, COLO 205, read-out: IC50 in cell proliferation assay",1870 nM
same,IC50,"134 cancer cell lines; Homo sapiens, COLO-829, read-out: IC50 in cell proliferation assay",2490 nM
same,IC50,"134 cancer cell lines; Homo sapiens, DLD-1, read-out: IC50 in cell proliferation assay",1540 nM
same,IC50,"134 cancer cell lines; Homo sapiens, DU-145, read-out: IC50 in cell proliferation assay",1970 nM
same,IC50,"134 cancer cell lines; Homo sapiens, DU-4475, read-out: IC50 in cell proliferation assay",3380 nM
same,IC50,"134 cancer cell lines; Homo sapiens, Daoy, read-out: IC50 in cell proliferation assay",2060 nM
same,IC50,"134 cancer cell lines; Homo sapiens, DoTc2-4510, read-out: IC50 in cell proliferation assay",6210 nM
same,IC50,"134 cancer cell lines; Homo sapiens, EOL1, read-out: IC50 in cell proliferation assay",0.634 nM
same,IC50,"134 cancer cell lines; Homo sapiens, FaDu, read-out: IC50 in cell proliferation assay",3050 nM
same,IC50,"134 cancer cell lines; Homo sapiens, G-361, read-out: IC50 in cell proliferation assay",2520 nM
same,IC50,"134 cancer cell lines; Homo sapiens, HCC827, read-out: IC50 in cell proliferation assay",3830 nM
same,IC50,"134 cancer cell lines; Homo sapiens, HCC4006, read-out: IC50 in cell proliferation assay",> 31600 nM
same,IC50,"134 cancer cell lines; Homo sapiens, HCT-15, read-out: IC50 in cell proliferation assay",2560 nM
same,IC50,"134 cancer cell lines; Homo sapiens, HCT-116, read-out: IC50 in cell proliferation assay",3020 nM
same,IC50,"134 cancer cell lines; Homo sapiens, HEC-1, read-out: IC50 in cell proliferation assay",1360 nM
same,IC50,"134 cancer cell lines; Homo sapiens, HEC-1B, read-out: IC50 in cell proliferation assay",426 nM
same,IC50,"134 cancer cell lines; Homo sapiens, HL-60, read-out: IC50 in cell proliferation assay",1820 nM
same,IC50,"134 cancer cell lines; Homo sapiens, HT, read-out: IC50 in cell proliferation assay",> 31600 nM
same,IC50,"134 cancer cell lines; Homo sapiens, HT-1080, read-out: IC50 in cell proliferation assay",1700 nM
same,IC50,"134 cancer cell lines; Homo sapiens, Hs746T, read-out: IC50 in cell proliferation assay",3100 nM
same,IC50,"134 cancer cell lines; Homo sapiens, Hs-578T, read-out: IC50 in cell proliferation assay",3730 nM
same,IC50,"134 cancer cell lines; Homo sapiens, HuTu80, read-out: IC50 in cell proliferation assay",1580 nM
same,IC50,"134 cancer cell lines; Homo sapiens, J82, read-out: IC50 in cell proliferation assay",2300 nM
same,IC50,"134 cancer cell lines; Homo sapiens, Jurkat E6.1, read-out: IC50 in cell proliferation assay",2640 nM
same,IC50,"134 cancer cell lines; Homo sapiens, K562, read-out: IC50 in cell proliferation assay",1850 nM
same,IC50,"134 cancer cell lines; Homo sapiens, KATO III, read-out: IC50 in cell proliferation assay",676 nM
same,IC50,"134 cancer cell lines; Homo sapiens, KG-1, read-out: IC50 in cell proliferation assay",590 nM
same,IC50,"134 cancer cell lines; Homo sapiens, KLE, read-out: IC50 in cell proliferation assay",9980 nM
same,IC50,"134 cancer cell lines; Homo sapiens, KMS-11, read-out: IC50 in cell proliferation assay",4570 nM
same,IC50,"134 cancer cell lines; Homo sapiens, KU812, read-out: IC50 in cell proliferation assay",850 nM
same,IC50,"134 cancer cell lines; Homo sapiens, Kasumi 1, read-out: IC50 in cell proliferation assay",55 nM
same,IC50,"134 cancer cell lines; Homo sapiens, LC-2-ad, read-out: IC50 in cell proliferation assay",5380 nM
same,IC50,"134 cancer cell lines; Homo sapiens, LNCaP-Clone-FGC, read-out: IC50 in cell proliferation assay",4880 nM
same,IC50,"134 cancer cell lines; Homo sapiens, LS174T, read-out: IC50 in cell proliferation assay",9310 nM
same,IC50,"134 cancer cell lines; Homo sapiens, LS-411N, read-out: IC50 in cell proliferation assay",2720 nM
same,IC50,"134 cancer cell lines; Homo sapiens, LoVo, read-out: IC50 in cell proliferation assay",3040 nM
same,IC50,"134 cancer cell lines; Homo sapiens, MCF7, read-out: IC50 in cell proliferation assay",> 31600 nM
same,IC50,"134 cancer cell lines; Homo sapiens, MDA-MB-231, read-out: IC50 in cell proliferation assay",1260 nM
same,IC50,"134 cancer cell lines; Homo sapiens, MDA-MB-453, read-out: IC50 in cell proliferation assay",3530 nM
same,IC50,"134 cancer cell lines; Homo sapiens, MDA-MB-468, read-out: IC50 in cell proliferation assay",2470 nM
same,IC50,"134 cancer cell lines; Homo sapiens, MG-63, read-out: IC50 in cell proliferation assay",12300 nM
same,IC50,"134 cancer cell lines; Homo sapiens, MIA PaCa-2, read-out: IC50 in cell proliferation assay",24200 nM
same,IC50,"134 cancer cell lines; Homo sapiens, MKN-45, read-out: IC50 in cell proliferation assay",> 31600 nM
same,IC50,"134 cancer cell lines; Homo sapiens, MOLM-13, read-out: IC50 in cell proliferation assay",238 nM
same,IC50,"134 cancer cell lines; Homo sapiens, MOLT-4, read-out: IC50 in cell proliferation assay",3830 nM
same,IC50,"134 cancer cell lines; Homo sapiens, MV4-11, read-out: IC50 in cell proliferation assay",578 nM
same,IC50,"134 cancer cell lines; Homo sapiens, MeWo, read-out: IC50 in cell proliferation assay",3580 nM
same,IC50,"134 cancer cell lines; Homo sapiens, NCCIT, read-out: IC50 in cell proliferation assay",1720 nM
same,IC50,"134 cancer cell lines; Homo sapiens, NCI-H82, read-out: IC50 in cell proliferation assay",1110 nM
same,IC50,"134 cancer cell lines; Homo sapiens, NCI-H460, read-out: IC50 in cell proliferation assay",1620 nM
same,IC50,"134 cancer cell lines; Homo sapiens, NCI-H661, read-out: IC50 in cell proliferation assay",11800 nM
same,IC50,"134 cancer cell lines; Homo sapiens, NCI-H716, read-out: IC50 in cell proliferation assay",1440 nM
same,IC50,"134 cancer cell lines; Homo sapiens, NCI-H1650, read-out: IC50 in cell proliferation assay",> 31600 nM
same,IC50,"134 cancer cell lines; Homo sapiens, NCI-H1975, read-out: IC50 in cell proliferation assay",2170 nM
same,IC50,"134 cancer cell lines; Homo sapiens, NCI-H2228, read-out: IC50 in cell proliferation assay",4140 nM
same,IC50,"134 cancer cell lines; Homo sapiens, OVCAR-3, read-out: IC50 in cell proliferation assay",2000 nM
same,IC50,"134 cancer cell lines; Homo sapiens, PFSK-1, read-out: IC50 in cell proliferation assay",8000 nM
same,IC50,"134 cancer cell lines; Homo sapiens, RL95-2, read-out: IC50 in cell proliferation assay",1130 nM
same,IC50,"134 cancer cell lines; Homo sapiens, RPMI-7951, read-out: IC50 in cell proliferation assay",6450 nM
same,IC50,"134 cancer cell lines; Homo sapiens, RS4-11, read-out: IC50 in cell proliferation assay",1170 nM
same,IC50,"134 cancer cell lines; Homo sapiens, Rec1, read-out: IC50 in cell proliferation assay",5270 nM
same,IC50,"134 cancer cell lines; Homo sapiens, SHP77, read-out: IC50 in cell proliferation assay",> 31600 nM
same,IC50,"134 cancer cell lines; Homo sapiens, SK-BR-3, read-out: IC50 in cell proliferation assay",2040 nM
same,IC50,"134 cancer cell lines; Homo sapiens, SK-N-AS, read-out: IC50 in cell proliferation assay",2370 nM
same,IC50,"134 cancer cell lines; Homo sapiens, SK-N-FI, read-out: IC50 in cell proliferation assay",2920 nM
same,IC50,"134 cancer cell lines; Homo sapiens, SK-N-MC, read-out: IC50 in cell proliferation assay",4760 nM
same,IC50,"134 cancer cell lines; Homo sapiens, SK-N-SH, read-out: IC50 in cell proliferation assay",3610 nM
same,IC50,"134 cancer cell lines; Homo sapiens, SNU-5, read-out: IC50 in cell proliferation assay",30200 nM
same,IC50,"134 cancer cell lines; Homo sapiens, SNU-16, read-out: IC50 in cell proliferation assay",773 nM
same,IC50,"134 cancer cell lines; Homo sapiens, SNU-C2B, read-out: IC50 in cell proliferation assay",15700 nM
same,IC50,"134 cancer cell lines; Homo sapiens, SU-DHL-1, read-out: IC50 in cell proliferation assay",2780 nM
same,IC50,"134 cancer cell lines; Homo sapiens, SU-DHL-6, read-out: IC50 in cell proliferation assay",8190 nM
same,IC50,"134 cancer cell lines; Homo sapiens, SUP-T1, read-out: IC50 in cell proliferation assay",2460 nM
same,IC50,"134 cancer cell lines; Homo sapiens, SW48, read-out: IC50 in cell proliferation assay",2840 nM
same,IC50,"134 cancer cell lines; Homo sapiens, SW480, read-out: IC50 in cell proliferation assay",3600 nM
same,IC50,"134 cancer cell lines; Homo sapiens, SW626, read-out: IC50 in cell proliferation assay",3910 nM
same,IC50,"134 cancer cell lines; Homo sapiens, SW780, read-out: IC50 in cell proliferation assay",30700 nM
same,IC50,"134 cancer cell lines; Homo sapiens, SW837, read-out: IC50 in cell proliferation assay",7360 nM
same,IC50,"134 cancer cell lines; Homo sapiens, SW872, read-out: IC50 in cell proliferation assay",2460 nM
same,IC50,"134 cancer cell lines; Homo sapiens, SW900, read-out: IC50 in cell proliferation assay",9130 nM
same,IC50,"134 cancer cell lines; Homo sapiens, SW948, read-out: IC50 in cell proliferation assay",1680 nM
same,IC50,"134 cancer cell lines; Homo sapiens, SW982, read-out: IC50 in cell proliferation assay",2260 nM
same,IC50,"134 cancer cell lines; Homo sapiens, SW-620, read-out: IC50 in cell proliferation assay",1900 nM
same,IC50,"134 cancer cell lines; Homo sapiens, T98G, read-out: IC50 in cell proliferation assay",3470 nM
same,IC50,"134 cancer cell lines; Homo sapiens, TCC-SUP, read-out: IC50 in cell proliferation assay",1290 nM
same,IC50,"134 cancer cell lines; Homo sapiens, THP-1, read-out: IC50 in cell proliferation assay",981 nM
same,IC50,"134 cancer cell lines; Homo sapiens, U2OS, read-out: IC50 in cell proliferation assay",3380 nM
same,IC50,"134 cancer cell lines; Homo sapiens, U-87 MG, read-out: IC50 in cell proliferation assay",> 31600 nM
same,IC50,"134 cancer cell lines; Homo sapiens, U-118-MG, read-out: IC50 in cell proliferation assay",4220 nM
same,IC50,"134 cancer cell lines; Homo sapiens, UMUC3, read-out: IC50 in cell proliferation assay",2890 nM
same,IC50,"134 cancer cell lines; Hs766T, read-out: IC50 in cell proliferation assay",4700 nM
same,IC50,"134 cancer cell lines; L-82, read-out: IC50 in cell proliferation assay",3030 nM
same,IC50,"134 cancer cell lines; Rh30, read-out: IC50 in cell proliferation assay",3000 nM
